# According to US8816085B2 (Takeda GmbH, priority 2009, dated 2014):
# Molecular target: T1, PDE5A1 (human PDE5 from platelets) (Homo sapiens, UniProt O76074)
# T1 construct: from tissue; host or cells: platelets from fresh blood of human donors (10,000 g supernatant of sonified platelets)
# Experiment: Inhibition of type 5 phosphodiesterase (PDE5) activity, modified SPA test
# Assay type: biochemical
# Details: PDE5-containing human platelet lysate, 0.5 μM cGMP, value classes, read-out: PDE5A1 inhibitory values [measured as −logIC50 (mol/l)] (converted)
# Experimental: Method for Measuring Inhibition of the Type 5 Phosphodiesterase (PDE5) Activity:
# As a source for human PDE5, platelets are used. For that purpose, 150 ml fresh blood from human donors anticoagulated with citrate [final concentration 0.3% (w/v)] is centrifuged at 200 g for 10 min to obtain the so-called platelet-rich-plasma (PRP) as a supernatant. 1/10 volume of ACD solution (85 mM Na3-citrate, 111 mM D-glucose, 71 mM citric acid, pH 4.4) is added to 9/10 volume of PRP. After centrifugation (1,400 g, 10 min) the cell pellet is resuspended in 3 ml homogenization buffer (NaCl 140 mM, KCl 3.8 mM, EGTA (ethylene glycol tetraacetic acid) 1 mM, MgCl2 1 mM, Tris-HCl 20 mM, beta-mercaptoethanol 1 mM, pH 8.2) plus protease-inhibitor mix giving rise to the final concentrations of 0.5 mM Pefablock (Roche), 10 μM Leupeptin, 5 μM Trypsininhibitor, 2 mM Benzamidin and 10 μM Pepstatin A. The suspension is sonified and thereafter centrifuged for 15 min at 10,000 g. The resulting supernatant (platelet lysate) is used for enzymatic testings.
# PDE5A1 activity is inhibited by the compounds of the present subject matter in a modified SPA (scintillation proximity assay) test, supplied by Amersham Biosciences (see procedural instructions “phosphodiesterase [3H]cAMP SPA enzyme assay, code TRKQ 7090”), carried out in 96-well microtitre plates (MTP's). The test volume is 100 μl and contains 20 mM Tris buffer (pH 7.4), 0.1 mg of BSA (bovine serum albumin)/ml, 5 mM Mg^2+, 1 μM motapizone, 10 nM PDE2 inhibitor 2-(3,4-dimethoxybenzyl)-7-[(1R,2R)-2-hydroxy-1-(2-phenylethyl)propyl]-5-methylimidazo[5,1-t][1,2,4]triazin-4(3H)-one, 0.5 μM cGMP (cyclic guanosine monophosphate) (including about 50,000 cpm of [3H]cGMP as a tracer), 1 μl of the respective compound dilution in dimethylsulfoxide (DMSO) and sufficient PDE5-containing platelet lysat (10,000×g supernatant, see above) to ensure that 10-20 wt % of the cGMP is converted under the said experimental conditions. […] After a preincubation of 5 min at 37° C., the reaction is started by adding the substrate (cGMP) and the assay is incubated for a further 15 min; after that, it is stopped by adding SPA beads (50 μl). In accordance with the manufacturer's instructions, the SPA beads had previously been resuspended in water, but are then diluted 1:3 (v/v) in water; the diluted solution also contains 3 mM 8-methoxymethyl-3-isobutyl-1-methylxanthine (IBMX) to ensure a complete PDE activity stop. After the beads have been sedimented (>30 min), the MTP's are analyzed in commercially available luminescence detection devices. The corresponding IC50 values of the compounds for the inhibition of PDE activity are determined from the concentration-effect curves by means of non-linear regression.
row,IC50 [nM],SMILES
1,1 to 10,"COc1ccc(OCC2CC2)c(-c2ccnc3c(C(=O)NC4CN(C(=O)C(C)O)CC4O)c(C)[nH]c23)c1 (mixture of isomers) [Example F33, Diastereomeric mixture of 7-[2-(Cyclopropylmethoxy)-5-methoxyphenyl]-N-{(3R*,4R*)-4-hydroxy-1-[(2S)-2-hydroxypropanoyl]pyrrolidin-3-yl}-2-methyl-1H-pyrrolo[3,2-b]pyridine-3-carboxamide and Diastereomeric mixture of 7-[2-(cyclopropylmethoxy)-5-methoxyphenyl]-N-{(3S*,4S*)-4-hydroxy-1-[(2S)-2-hydroxypropanoyl]pyrrolidin-3-yl}-2-methyl-1H-pyrrolo[3,2-b]pyridine-3-carboxamide]"
2,1 to 10,"CC(=O)N1CC[C@@H](NC(=O)c2c(C)[nH]c3c(-c4cc(F)ccc4OCC4CC4)ccnc23)[C@H](O)C1 (relative stereo) [Example E28, N-[(3R*,4R*)-1-Acetyl-3-hydroxypiperidin-4-yl]-7-[2-(cyclopropylmethoxy)-5-fluorophenyl]-2-methyl-1H-pyrrolo[3,2-b]pyridine-3-carboxamide]"
3,1 to 10,"CCC(=O)N1CC[C@@H](NC(=O)c2c(C)[nH]c3c(-c4cc(F)ccc4OCC4CC4)ccnc23)[C@H](O)C1 (relative stereo) [Example E29, 7-[2-(Cyclopropylmethoxy)-5-fluorophenyl]-N-[(3R*,4R*)-3-hydroxy-1-propanoylpiperidin-4-yl]-2-methyl-1H-pyrrolo[3,2-b]pyridine-3-carboxamide]"
4,1 to 10,"COCC(=O)N1CC[C@@H](NC(=O)c2c(C)[nH]c3c(-c4cc(F)ccc4OCC4CC4)ccnc23)[C@H](O)C1 (relative stereo) [Example E30, 7-[2-(Cyclopropylmethoxy)-5-fluorophenyl]-N-[(3R*,4R*)-3-hydroxy-1-(methoxyacetyl)piperidin-4-yl]-2-methyl-1H-pyrrolo[3,2-b]pyridine-3-carboxamide]"
5,1 to 10,"COc1ccc(OCC2CC2)c(-c2ccnc3c(C(=O)N[C@@H]4CN(C(C)=O)C[C@H]4O)c(C)[nH]c23)c1 (relative stereo) [Example E49, N-[(3R*,4R*)-1-Acetyl-4-hydroxypyrrolidin-3-yl]-7-[2-(cyclopropylmethoxy)-5-methoxyphenyl]-2-methyl-1H-pyrrolo[3,2-b]pyridine-3-carboxamide]"
6,1 to 10,"CCC(=O)N1C[C@@H](O)[C@H](NC(=O)c2c(C)[nH]c3c(-c4cc(OC)ccc4OCC4CC4)ccnc23)C1 (relative stereo) [Example E50, 7-[2-(Cyclopropylmethoxy)-5-methoxyphenyl]-N-[(3R*,4R*)-4-hydroxy-1-propanoylpyrrolidin-3-yl]-2-methyl-1H-pyrrolo[3,2-b]pyridine-3-carboxamide]"
7,1 to 10,"COCC(=O)N1C[C@@H](O)[C@H](NC(=O)c2c(C)[nH]c3c(-c4cc(OC)ccc4OCC4CC4)ccnc23)C1 (relative stereo) [Example E51, 7-[2-(Cyclopropylmethoxy)-5-methoxyphenyl]-N-[(3R*,4R*)-4-hydroxy-1-(methoxyacetyl)pyrrolidin-3-yl]-2-methyl-1H-pyrrolo[3,2-b]pyridine-3-carboxamide]"
8,< 1,"COc1cc(-c2ccnc3c(C(=O)N[C@@H]4CN(C(C)=O)C[C@H]4O)c(C)[nH]c23)c(OCC2CC2)cc1F (relative stereo) [Example E70, N-[(3R*,4R*)-1-Acetyl-4-hydroxypyrrolidin-3-yl]-7-[2-(cyclopropylmethoxy)-4-fluoro-5-methoxyphenyl]-2-methyl-1H-pyrrolo[3,2-b]pyridine-3-carboxamide]"
9,< 1,"CCC(=O)N1C[C@@H](O)[C@H](NC(=O)c2c(C)[nH]c3c(-c4cc(OC)c(F)cc4OCC4CC4)ccnc23)C1 (relative stereo) [Example E71, 7-[2-(Cyclopropylmethoxy)-4-fluoro-5-methoxyphenyl]-N-[(3R*,4R*)-4-hydroxy-1-propanoylpyrrolidin-3-yl]-2-methyl-1H-pyrrolo[3,2-b]pyridine-3-carboxamide]"
10,< 1,"COCC(=O)N1C[C@@H](O)[C@H](NC(=O)c2c(C)[nH]c3c(-c4cc(OC)c(F)cc4OCC4CC4)ccnc23)C1 (relative stereo) [Example E72, 7-[2-(Cyclopropylmethoxy)-4-fluoro-5-methoxyphenyl]-N-[(3R*,4R*)-4-hydroxy-1-(methoxyacetyl)pyrrolidin-3-yl]-2-methyl-1H-pyrrolo[3,2-b]pyridine-3-carboxamide]"
11,< 1,"COc1cc(-c2ccnc3c(C(=O)N[C@@H]4CCN(C(C)=O)C[C@H]4O)c(C)[nH]c23)c(OCC2CC2)cc1F (relative stereo) [Example E73, N-[(3R*,4R*)-1-Acetyl-3-hydroxypiperidin-4-yl]-7-[2-(cyclopropylmethoxy)-4-fluoro-5-methoxyphenyl]-2-methyl-1H-pyrrolo[3,2-b]pyridine-3-carboxamide]"
12,< 1,"CCC(=O)N1CC[C@@H](NC(=O)c2c(C)[nH]c3c(-c4cc(OC)c(F)cc4OCC4CC4)ccnc23)[C@H](O)C1 (relative stereo) [Example E74, 7-[2-(Cyclopropylmethoxy)-4-fluoro-5-methoxyphenyl]-N-[(3R*,4R*)-3-hydroxy-1-propanoylpiperidin-4-yl]-2-methyl-1H-pyrrolo[3,2-b]pyridine-3-carboxamide]"
13,< 1,"COCC(=O)N1CC[C@@H](NC(=O)c2c(C)[nH]c3c(-c4cc(OC)c(F)cc4OCC4CC4)ccnc23)[C@H](O)C1 (relative stereo) [Example E75, 7-[2-(Cyclopropylmethoxy)-4-fluoro-5-methoxyphenyl]-N-[(3R*,4R*)-3-hydroxy-1-(methoxyacetyl)piperidin-4-yl]-2-methyl-1H-pyrrolo[3,2-b]pyridine-3-carboxamide]"
14,1 to 10,"Cc1[nH]c2c(-c3cc(F)ccc3OCC3CC3)ccnc2c1C(=O)N[C@@H]1CCN(C(=O)CO)C[C@H]1O (relative stereo) [Example F18, 7-[2-(Cyclopropylmethoxy)-5-fluorophenyl]-N-[rel.(3R,4R)-3-hydroxy-1-(hydroxyacetyl)piperidin-4-yl]-2-methyl-1H-pyrrolo[3,2-b]pyridine-3-carboxamide]"
15,1 to 10,"COc1ccc(OCC2CC2)c(-c2ccnc3c(C(=O)N[C@@H]4CN(C(=O)CO)C[C@H]4O)c(C)[nH]c23)c1 (relative stereo) [Example F32, 7-[2-(Cyclopropylmethoxy)-5-methoxyphenyl]-N-[(3R*,4R*)-4-hydroxy-1-(hydroxyacetyl)pyrrolidin-3-yl]-2-methyl-1H-pyrrolo[3,2-b]pyridine-3-carboxamide]"
16,< 1,"COc1cc(-c2ccnc3c(C(=O)N[C@@H]4CN(C(=O)CO)C[C@H]4O)c(C)[nH]c23)c(OCC2CC2)cc1F (relative stereo) [Example F46, 7-[2-(Cyclopropylmethoxy)-4-fluoro-5-methoxyphenyl]-N-[(3R*,4R*)-4-hydroxy-1-(hydroxyacetyl)pyrrolidin-3-yl]-2-methyl-1H-pyrrolo[3,2-b]pyridine-3-carboxamide]"
17,< 1,"COc1cc(-c2ccnc3c(C(=O)N[C@@H]4CCN(C(=O)CO)C[C@H]4O)c(C)[nH]c23)c(OCC2CC2)cc1F (relative stereo) [Example F48, 7-[2-(Cyclopropylmethoxy)-4-fluoro-5-methoxyphenyl]-N-[(3R*,4R*)-3-hydroxy-1-(hydroxyacetyl)piperidin-4-yl]-2-methyl-1H-pyrrolo[3,2-b]pyridine-3-carboxamide]"
18,< 1,"COCC(=O)N1CCC(NC(=O)c2c(C)[nH]c3c(-c4c(OCC5CC5)ccc5c4OCO5)ccnc23)CC1 [Example E03, 7-[5-(Cyclopropylmethoxy)-1,3-benzodioxol-4-yl]-N-[1-(methoxyacetyl)piperidin-4-yl]-2-methyl-1H-pyrrolo[3,2-b]pyridine-3-carboxamide]"
19,< 1,"CCOC(=O)N1CCC(NC(=O)c2c(C)[nH]c3c(-c4c(OCC5CC5)ccc5c4OCO5)ccnc23)CC1 [Example E04, Ethyl 4-[({7-[5-(cyclopropylmethoxy)-1,3-benzodioxol-4-yl]-2-methyl-1H-pyrrolo[3,2-b]pyridin-3-yl}carbonyl)amino]piperidine-1-carboxylate]"
